{"source": "paper PMC6478161", "about": "(Biochemistry, 2016)", "molecules": {"B1": {"name": "IIA^Glc, phosphotransferase protein of the glucose-specific phosphoenolpyruvate:carbohydrate phosphotransferase system (natural protein, E. coli, UniProt P69783 1-169, looked up)", "chain": "MGLFDKLKSLVSDDKKDTGTIEIIAPLSGEIVNIEDVPDVVFAEKIVGDGIAIKPTGNKMVAPVDGTIGKIFETNHAFSIESDSGVELFVHFGIDTVELKGEGFKRIAEEGQRVKVGDTVIEFDLPLLEEKAKSTLTPVVISNMDEIKELIKLSGSVTVGETPVIRIKK"}}, "key": {"WT LacY [1]": {"molecular_target": "WT LacY (Escherichia coli, UniProt P02920)", "assay": "ITC, sugar", "type": "binding"}, "double-Trp mutant": {"test_system": "double-Trp mutant", "settings": "cited from earlier work"}, "WT LacY [2]": {"molecular_target": "T1, WT LacY (Escherichia coli, UniProt P02920)", "T1 sequence (P02920 whole entry, looked up)": "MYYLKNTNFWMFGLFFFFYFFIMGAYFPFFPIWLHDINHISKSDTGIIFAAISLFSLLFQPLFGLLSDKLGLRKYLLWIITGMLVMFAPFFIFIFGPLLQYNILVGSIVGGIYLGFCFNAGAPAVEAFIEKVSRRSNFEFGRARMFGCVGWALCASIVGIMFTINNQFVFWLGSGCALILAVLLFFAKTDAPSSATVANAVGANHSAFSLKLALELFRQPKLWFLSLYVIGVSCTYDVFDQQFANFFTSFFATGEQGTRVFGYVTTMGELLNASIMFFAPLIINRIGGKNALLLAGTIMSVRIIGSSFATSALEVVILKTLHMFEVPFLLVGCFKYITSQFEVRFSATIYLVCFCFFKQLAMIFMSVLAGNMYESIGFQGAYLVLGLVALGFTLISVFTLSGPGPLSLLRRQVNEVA", "settings": "cytoplasmic face of the WT; cited from earlier work"}, "WT LacY:Nb-9065": {"molecular_target": "T2, WT LacY:Nb-9065 (Escherichia coli, UniProt P02920)", "T2 sequence (P02920 whole entry, looked up)": "T1 sequence (P02920 whole entry, looked up)", "settings": "WT pre-equilibrated with Nb-9065; 10 mM melibiose"}, "WT LacY:Nb-9036": {"molecular_target": "T3, WT LacY:Nb-9036 (Escherichia coli, UniProt P02920)", "T3 sequence (P02920 whole entry, looked up)": "T1 sequence (P02920 whole entry, looked up)", "assay": "ITC, IIA^Glc titration of WT LacY:Nb-9036 complex", "type": "binding", "settings": "WT pre-equilibrated with Nb-9036; 10 mM melibiose"}, "Mutant:Nb-9065": {"molecular_target": "Mutant:Nb-9065 (Escherichia coli, UniProt P02920, G262W/G46W)", "sequence (P02920 whole entry G46W/G262W)": "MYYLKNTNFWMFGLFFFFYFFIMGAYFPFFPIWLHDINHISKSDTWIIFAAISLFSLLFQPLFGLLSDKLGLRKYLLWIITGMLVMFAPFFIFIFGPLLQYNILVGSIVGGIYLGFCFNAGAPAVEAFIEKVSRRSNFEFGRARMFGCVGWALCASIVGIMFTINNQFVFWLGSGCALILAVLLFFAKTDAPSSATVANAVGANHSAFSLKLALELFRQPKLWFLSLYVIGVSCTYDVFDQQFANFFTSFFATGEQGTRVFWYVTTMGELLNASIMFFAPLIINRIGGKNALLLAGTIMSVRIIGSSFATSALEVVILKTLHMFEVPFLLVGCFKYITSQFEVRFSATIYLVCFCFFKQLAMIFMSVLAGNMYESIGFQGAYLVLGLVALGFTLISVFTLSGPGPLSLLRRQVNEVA", "assay": "ITC, α-NPG binding to double-Trp mutant:Nb-9065 complex"}, "WT:Nb-9036": {"molecular_target": "WT:Nb-9036 (Escherichia coli, UniProt P02920)", "assay": "ITC, α-NPG binding to WT LacY:Nb-9036 complex"}, "[3]": {"molecular_target": "Double-Trp mutant (G46W/G262W LacY) (Escherichia coli, UniProt P02920, G262W/G46W)", "sequence (P02920 whole entry G46W/G262W)": "as above", "assay": "ITC, α-NPG binding to double-Trp mutant LacY", "settings": "ITC at 25 °C; no Nb"}, "WT:Nb-9065": {"molecular_target": "WT:Nb-9065 (Escherichia coli, UniProt P02920)", "assay": "ITC, α-NPG binding to WT LacY:Nb-9065 complex"}, "Mutant:Nb-9036": {"molecular_target": "Mutant:Nb-9036 (Escherichia coli, UniProt P02920, G262W/G46W)", "sequence (P02920 whole entry G46W/G262W)": "as above", "assay": "ITC, α-NPG binding to double-Trp mutant:Nb-9036 complex"}, "[4]": {"molecular_target": "T4, lactose permease of Escherichia coli (LacY), wild type (Escherichia coli, UniProt P02920 1-417)", "T4 sequence": "T1 sequence (P02920 whole entry, looked up)", "assay": "ITC"}, "[5]": {"settings": "ITC at 25 °C, mutant pre-incubated with Nb-9065"}, "[6]": {"settings": "difference in the absence and presence of Nb-9065, mutant"}, "[7]": {"settings": "ITC at 25 °C, WT pre-incubated with Nb-9036"}, "[8]": {"settings": "difference in the absence and presence of Nb-9036, WT"}, "[9]": {"settings": "difference in the absence and presence of Nb-9036, WT, listed as galactoside"}, "[10]": {"settings": "ITC at 25 °C, WT pre-incubated with Nb-9065"}, "[11]": {"settings": "difference in the absence and presence of Nb-9065, WT"}, "[12]": {"settings": "ITC at 25 °C, mutant pre-incubated with Nb-9036"}, "[13]": {"settings": "difference in the absence and presence of Nb-9036, mutant"}, "[14]": {"settings": "difference in the absence and presence of Nb-9036, mutant, listed as galactoside"}}, "note": "Several values for one entry are separate records, joined by “and”; a condition that tells them apart may be missing. Equal entries are not always repeated."}
{"molecule": "O=[N+]([O-])c1ccc(O[C@H]2O[C@H](CO)[C@@H](O)[C@H](O)[C@H]2O)cc1", "note": "[nitrophenyl-α-D-glucopyranoside]", "values": [{"measurement": "titration thermogram (control)", "setting": "WT LacY [1]; ITC, 1 mM injected into WT LacY", "result": "small, relatively flat thermogram"}]}
{"molecule": "IIA^Glc: a phosphotransferase protein of the glucose-specific phosphoenolpyruvate:carbohydrate phosphotransferase system (E. coli, unphosphorylated)", "values": [{"measurement": "IIA^Glc binding", "setting": "double-Trp mutant", "result": "does not bind"}, {"measurement": "heat of IIA^Glc binding", "setting": "WT LacY [2]", "result": "endothermic"}, {"measurement": "IIA^Glc binding (thermogram)", "setting": "WT LacY:Nb-9065", "result": "no IIA^Glc binding"}, {"measurement": "IIA^Glc binding (thermogram)", "setting": "WT LacY:Nb-9036", "result": "no IIA^Glc binding"}]}
{"molecule": "O=[N+]([O-])c1ccc(O[C@H]2O[C@H](CO)[C@H](O)[C@H](O)[C@H]2O)cc1", "note": "[α-NPG, p-nitrophenyl-α-D-galactopyranoside]", "values": [{"measurement": "-TΔS", "setting": "WT LacY [1]; ITC at 25 °C, no Nb", "result": "−10.3 (3.6) kJ/mol"}, {"measurement": "Kd", "setting": "WT LacY [1]; ITC at 25 °C, no Nb", "result": 28.8, "unit": "µM"}, {"measurement": "N (stoichiometry)", "setting": "WT LacY [1]; ITC at 25 °C, no Nb", "result": "0.6 (0.1)"}, {"measurement": "ΔG", "setting": "WT LacY [1]; ITC at 25 °C, no Nb", "result": "−25.9 (0.2) kJ/mol"}, {"measurement": "ΔH", "setting": "WT LacY [1]; ITC at 25 °C, no Nb", "result": "−15.6 (3.4) kJ/mol"}, {"measurement": "-TΔS", "setting": "Mutant:Nb-9065; [5]", "result": "12.43 (0.9) kJ/mol"}, {"measurement": "Kd", "setting": "Mutant:Nb-9065; [5]", "result": 7.1, "unit": "µM"}, {"measurement": "N (stoichiometry)", "setting": "Mutant:Nb-9065; [5]", "result": "0.4 (0.0)"}, {"measurement": "ΔG", "setting": "Mutant:Nb-9065; [5]", "result": "−29.4 (0.2) kJ/mol"}, {"measurement": "ΔH", "setting": "Mutant:Nb-9065; [5]", "result": "−41.8 (1.05) kJ/mol"}, {"measurement": "change in Kd by Nb", "setting": "Mutant:Nb-9065; Nb-9065:mutant complex versus mutant alone", "result": "no detectable change"}, {"measurement": "ΔΔG", "setting": "Mutant:Nb-9065; [6]", "result": "[0.9^ns] kJ/mol"}, {"measurement": "ΔΔH", "setting": "Mutant:Nb-9065; [6]", "result": "[0.3^ns] kJ/mol"}, {"measurement": "−TΔΔS", "setting": "Mutant:Nb-9065; [6]", "result": "[0.6^ns] kJ/mol"}, {"measurement": "-TΔS", "setting": "WT:Nb-9036; [7]", "result": "17.2 (0.5) kJ/mol"}, {"measurement": "Kd", "setting": "WT:Nb-9036; [7]", "result": "~0.3 µM and 0.3 µM"}, {"measurement": "N (stoichiometry)", "setting": "WT:Nb-9036; [7]", "result": "0.5 (0.1)"}, {"measurement": "ΔG", "setting": "WT:Nb-9036; [7]", "result": "−37.1 (0.6) kJ/mol"}, {"measurement": "ΔH", "setting": "WT:Nb-9036; [7]", "result": "−54.3 (1.1) kJ/mol"}, {"measurement": "fold decrease in Kd (increase in affinity) by Nb", "setting": "WT:Nb-9036; Nb-9036:WT complex versus WT alone", "result": "~96", "unit": "fold"}, {"measurement": "ΔΔG", "setting": "WT:Nb-9036; [8]", "result": "[−11.2 ^**] kJ/mol"}, {"measurement": "ΔΔH", "setting": "WT:Nb-9036; [8]", "result": "[−38.7 ^**] kJ/mol"}, {"measurement": "−TΔΔS", "setting": "WT:Nb-9036; [8]", "result": "[27.5 ^*] kJ/mol"}, {"measurement": "ΔΔH", "setting": "WT:Nb-9036; [9]", "result": -9.25, "unit": "kcal/mol"}, {"measurement": "−TΔΔS", "setting": "WT:Nb-9036; [9]", "result": 6.57, "unit": "kcal/mol"}, {"measurement": "-TΔS", "setting": "[3]", "result": "11.8 (0.3) kJ/mol"}, {"measurement": "Kd", "setting": "[3]", "result": 5, "unit": "µM"}, {"measurement": "N (stoichiometry)", "setting": "[3]", "result": "0.5 (0.0)"}, {"measurement": "ΔG", "setting": "[3]", "result": "−30.3 (0.3) kJ/mol"}, {"measurement": "ΔH", "setting": "[3]", "result": "−42.1 (0.0) kJ/mol"}, {"measurement": "-TΔS", "setting": "WT:Nb-9065; [10]", "result": "21.0 (1.7) kJ/mol"}, {"measurement": "Kd", "setting": "WT:Nb-9065; [10]", "result": 5.7, "unit": "µM"}, {"measurement": "N (stoichiometry)", "setting": "WT:Nb-9065; [10]", "result": "0.5 (0.0)"}, {"measurement": "ΔG", "setting": "WT:Nb-9065; [10]", "result": "−30.0 (0.1) kJ/mol"}, {"measurement": "ΔH", "setting": "WT:Nb-9065; [10]", "result": "−51.0 (1.8) kJ/mol"}, {"measurement": "fold decrease in Kd by Nb", "setting": "WT:Nb-9065; Nb-9065:WT complex versus WT alone", "result": 4, "unit": "fold"}, {"measurement": "ΔΔG", "setting": "WT:Nb-9065; [11]", "result": "[−4.1 ^**] kJ/mol"}, {"measurement": "ΔΔH", "setting": "WT:Nb-9065; [11]", "result": "[−35.4 ^*] kJ/mol"}, {"measurement": "−TΔΔS", "setting": "WT:Nb-9065; [11]", "result": "[31.3 ^*] kJ/mol"}, {"measurement": "-TΔS", "setting": "Mutant:Nb-9036; [12]", "result": "34.2 (2.9) kJ/mol"}, {"measurement": "Kd", "setting": "Mutant:Nb-9036; [12]", "result": "~0.3 µM and 0.3 µM"}, {"measurement": "N (stoichiometry)", "setting": "Mutant:Nb-9036; [12]", "result": "0.6 (0.0)"}, {"measurement": "ΔG", "setting": "Mutant:Nb-9036; [12]", "result": "−37.5 (0.4) kJ/mol"}, {"measurement": "ΔH", "setting": "Mutant:Nb-9036; [12]", "result": "−71.7 (2.5) kJ/mol"}, {"measurement": "fold decrease in Kd (increase in affinity) by Nb", "setting": "Mutant:Nb-9036; Nb-9036:mutant complex versus mutant alone", "result": "~19", "unit": "fold"}, {"measurement": "ΔΔG", "setting": "Mutant:Nb-9036; [13]", "result": "[−7.2 ^**] kJ/mol"}, {"measurement": "ΔΔH", "setting": "Mutant:Nb-9036; [13]", "result": "[−29.6 ^**] kJ/mol"}, {"measurement": "−TΔΔS", "setting": "Mutant:Nb-9036; [13]", "result": "[22.4 ^*] kJ/mol"}, {"measurement": "ΔΔH", "setting": "Mutant:Nb-9036; [14]", "result": -7.07, "unit": "kcal/mol"}, {"measurement": "−TΔΔS", "setting": "Mutant:Nb-9036; [14]", "result": 5.35, "unit": "kcal/mol"}]}
{"molecule": "B1", "values": [{"measurement": "binding result", "setting": "[4]", "result": "binds"}]}
